According to patent publication EP3431088A1, “MNTBAP FOR USE IN INDUCING A TRANSIENT IMMUNE TOLERANCE” (priority 2017, dated 2019):

Assays:
[1] = system: specific T-cell immune responses against OVA peptides; assay: OVA peptides subcutaneous immunization, IFN-γ ELISPOT on spleen cells; assay type: in vivo, C57BL/6 mice; settings: 80 mg/kg IP daily 5 days, vs PBS + OVA / IFA
Description: (§1) MnTBAP (Calbiochem, San Diego, USA or Enzo Life Sciences, Farmingdale, USA) is dissolved in 75 mM NaOH to constitute a 20 mM stock solution. MnTBAP is dissolved in the complete medium, used for in vitro treatment, containing RPMI-1640 supplemented with 10% heat-inactivated fetal calf serum, 100 U/ml penicillin/streptomycin, 2 mM glutamax and 50 µM β-mercaptoethanol β-ME). Hypertonic medium, used to block clathrin dependent endocytosis, is complete medium supplemented with 0.45 M sucrose. For in vivo treatment, the stock solution is diluted with PBS and administered at 80 mg/kg intraperitoneally daily during five days. Control animals are injected with equivalent volume of PBS.
A mixture of chicken egg albumin (OVA) peptides is administrated subcutaneously in mice anesthetized by intraperitoneal injection of xylazine (10 mg/kg) and ketamine (100 mg/kg). OVA257-264 (SEQ ID NO: 3; SIINFEKL) (InvivoGen, San Diego, USA) is a class I (Kb)-restricted peptide epitope of OVA presented by the class I major histocompatibility complex molecule (CMH) H-2Kb. OVA323-339 (SEQ ID NO: 4; ISQAVHAAHAEINEAGR) (AnaSpec, San Jose, USA) is an H-2b-restricted OVA class II epitope. 100 µg of each peptide complexed with the same volume of incomplete Freund's adjuvant (IFA) (Sigma-Aldrich) are administrated. Controls are injected with PBS-IFA complexes. OVA peptides- and PBS-IFA complexes are injected two hours or 21 days post first intraperitoneal injection of MnTBAP (or PBS). Eight days post OVA peptides injection, mice are sacrificed and spleens harvested to analyze OVA-specific T cell response.
Spleens are harvested to analyze the cellular immune anti-transgene response by T-cell cytokine response assay. Multiscreen-HA Assay System 96-well Filtration plates (Merck) are coated overnight with 2.5 µg/ml of anti-mouse IFN-γ purified mAb (eBiosciences) at 4°C, washed, and then blocked with RPMI 1640 medium (Life Technologies, Saint-Aubin, France) supplemented with 10% heat inactivated fetal bovine serum (FCS), 100U/ml penicillin/streptomycin (Thermo Fisher Scientific) and 2mM GlutaMAXTM-I (Life technologies) for 2 hours at 37°C. Plates are washed three times with RPMI 1640 medium without FCS. Splenocytes are added in duplicate to the IFN-γ-coated well (1 or 0.5 x 10^6 cells/well) and cultured in presence of Dby or Uty peptide (Genepep, Montpellier, France) at 2 µM or in presence of OVA peptides at 10 µg/ml. As a positive control, cells are stimulated with Concanavalin A (Sigma-Aldrich) at 1 µg/ml in each test. […] Spots are counted using an AID reader (Ceipheid Benelux, Louven, Belgium). Spot forming units (SFU) per million cells for each mouse are calculated as the average value of duplicate measures after subtraction of background values obtained with in vitro unstimulated splenocytes.

[2] = system: rAAV1 CMV mSeap vector; assay: rAAV readministration in TA: mSeap expression and vector copy number; assay type: in vivo, C57BL/6 mice
Description: as §1
Readministration protocol: After the initial IV injection of rAAV2/1 CMV SGCA HY vector at D0 (two hours post first IP injection of MnTBAP) the second rAAV1 injection (2.10^9 vg of rAAV2/1 CMV mSeAP) is performed 28 days later in the left TA muscle. Mice are followed up to 93 days after readministration to analyze capsid-specific humoral response and to measure circulating mSeAP from serum samples. Mice are killed 93 days after second injection of vector. […]
Genomic DNA is extracted from frozen muscles using MagNA Pure 96 Instrument (Roche). […] Results are calculated from a standard curve based on dilutions of 2 plasmids containing either the Titin or CMV sequences. […]
Determination of alkaline phosphatase concentration in immunized mice sera is performed by chemoluminescence analyzis (C. Riviere et al., Gene therapy 13, 1300. 2006). Blood samples are centrifuged for 10 min at 8000 rpm to collect sera, endogenous alkaline phosphatase is heat inactivated for 5 min at 65°C and the heat-resistant mSeAP is measured by addition of the reaction buffer and CSPD® chemiluminescent substrate, according to the manufacturer's instructions (Tropix, Applied Biosystems, Forster City, USA). Chemiluminescence is quantified using a luminometer, Enspire (Perkin Elmer, Massachusetts, USA). Expression levels are expressed as ng of mSeAP per ml of serum using a standard curve of purified human placental alkaline phosphatase.

[3] = OVA/IFA immunization 21 days after first injection
[4] = OVA/IFA immunization two hours after first injection

O=C(O)c1ccc(-c2c3nc(c(-c4ccc(C(=O)O)cc4)c4ccc([n-]4)c(-c4ccc(C(=O)O)cc4)c4nc(c(-c5ccc(C(=O)O)cc5)c5ccc2[n-]5)C=C4)C=C3)cc1.[Mn+3] [MnTBAP, manganese [III] tetrakis (4-benzoic acid) porphyrin]
IFN-γ production by OVA-specific CD4^+ T cells [1, 3]: produce low levels of IFN-γ with no significant differences
IFN-γ production by OVA-specific CD8^+ T cells [1, 3]: produce IFN-γ with no significant differences
IFN-γ production by OVA-specific CD4^+ T cells [1, 4]: not able to produce IFN-γ
IFN-γ production by OVA-specific CD8^+ T cells [1, 4]: not able to produce IFN-γ
level of mSeap in the serum ([2]; 93 days after vector readministration, vs control mice): significantly increased
histochemical detection of mSeap in muscle ([2]; injected TA harvested 93 days after vector readministration): detection of the reporter gene mSeap
normalized copy number of the readministered rAAV ([2]; injected TA, CMV PCR normalized to titin, vs control mice): significantly increased
